We go through one compound from patent US9616037B2, “Aryl-phenyl-sulfonamido-cycloalkyl compounds and their use” (PIMCO 2664 Limited, priority 2008, dated 2017).

Converted amounts (≈) assume the structure as drawn.

The subject of one data set is J774 macrophages. In words: Alamar Blue macrophage J774 viability assay. Format: cell-based. The settings on record: Mus musculus; J774 cells, 72 hours with compound, Alamar Blue readout; read-out: IC50. The protocol:
(§1) Initial screening of candidate compounds was performed using in vitro assays to determine potency, metabolic stability and solubility in biologically relevant fluids. Potency was assessed using a viability assay based on the survival of the J774 macrophage cell line. Macrophages are closely related to osteoclasts and have been used previously as a model system for osteoclast survival (see, e.g., Luckman et al., 1998). Like osteoclasts, J774 macrophages are dependent on continued NFκB activation for survival, thereby providing a valuable screen for compounds with anti-inflammatory activity. Metabolic stability was measured by determining the rate of disappearance of compound in the presence of human liver microsomal preparations, as quantified by LC-MS/MS. Solubility was measured by equilibration of the compound in fasted state simulated intestinal fluid (FaSSIF) and quantified by HPLC.
In vitro potency as anti-inflammatory agents was determined for a number of APSAC compounds by incubation with J774 macrophages and subsequent determination of cell viability.
J774 cells were plated at 10^4 cells per well in 100 μL αMEM (α Modified Eagle Medium) in 96-well plates and grown overnight. The next day, test compounds were added to the cultures, and cultures were continued for another 72 hours. At the end of the culture period, cell survival was determined using an Alamar Blue assay as previously described (see, e.g., Nociari et al., 1998).
Alamar Blue is an oxidation-reduction sensitive indicator. The dye itself is in the oxidised state, which is blue and non-fluorescent. The dye can accept electrons from reducing species, such as NADPH and FADH, to form a reduced dye species, which is red and fluorescent. Thus the transformation from oxidised form to reduced form can be measured by fluorimetric or colourimetric means. For fluorescence measurements, 530-560 nm excitation and 590 nm emission wavelengths are typically used. For colourimetric measurements, absorbance at 570 nm (reduced form) and 600 nm (oxidised form) is typically measured. A simple calculation is performed to determine the relative quantities of the two species.
A high ratio of the reducing species, NADPH and FADH, to the corresponding oxidised species, NADP and FAD, is an indicator that cells are proliferating and viable. A low ratio indicates cells that are quiescent or non-viable.
Briefly, Alamar Blue (Biosource International) was added undiluted to the each well (1:10 v/v, 10 μL). The plate was incubated at 37° C. for 3-4 hours and the fluorescence was measured at 590 nm, with a 25 nm bandwidth. A high reading indicated cells with normal viability, and a low reading indicated cells that have been damaged and are no longer proliferating normally. The controls gave a high fluorescence reading, indicating a high number of live, healthy cells. A potent test compound gave a low fluorescence reading. The average results for each test compound (n=5) were expressed as a percent (%) of the average control value.
Addition of Compounds. All of the compounds studied were made up as 100 mM solutions in DMSO. These stock solutions were then diluted 1000-10000× in culture medium (αMEM). From these 100 μM or 10 μM solutions, convenient quantities (3-33 μL) were added directly to the wells so as to give the desired final compound concentration.
A general note: Alamar Blue is a resazurin reagent that responds to reducing activity.

A short description of data set [1]: Human liver microsomal stability assay. The data set is classed as in vitro ADME. The settings on record: both sexes, pH 7.4; pooled human liver microsomes 0.5 mg/mL, 3 μM compound, NADPH, 45 minute incubation. The protocol: as §1, with “Macrophages are closely related to osteoclasts and have been used previously as a model system for osteoclast survival (see, e.g., Luckman et al., 1998).” left out
Metabolic stability of APSAC derivatives was measured by determination of the rate of compound disappearance when incubated in the presence of human liver microsomes. Liver microsomes are prepared from the endoplasmic reticulum of hepatocytes and are the primary source of the most important enzymes (cytochrome P450) involved in drug metabolism. Study of drug stability in the presence of liver microsomes is accepted as a valuable model permitting rapid prediction of in vivo drug stability.
Human liver microsomes were obtained from a commercial source. Test compounds (3 μM) were incubated with pooled liver microsomes (male and female). Samples were incubated for a 45 minute period and removed at 5 time points and test compounds were analysed by LC-MS/MS.
The final incubation volume was 25 μL. A control incubation was included for each compound tested, where 0.1 M phosphate buffer pH 7.4 was added instead of NADPH. The control compounds testosterone and 7-hydroxycoumarin were included in each experiment and all incubations were performed singularly for each compound.
Each compound was incubated for 0, 5, 15, 30, and 45 minutes. The control (minus NADPH) was incubated for 45 minutes only. […] The incubation plates were centrifuged at 2500 rpm for 20 minutes at 4° C. to precipitate the protein.
Following protein precipitation, the sample supernatants were combined in cassettes of up to 4 compounds and analysed using standard LC-MS/MS conditions.
From a plot of the natural logarithm of the peak area ratio (i.e., the ratio of compound peak area:internal standard peak area) against time, the gradient of the line was determined. Subsequently, half-life and intrinsic clearance were calculated using the equations below: Eliminated rate constant (k)=(−gradient). […] Pharmacokinetics Studies
(In general: Liver microsomes are a subcellular fraction often used to study metabolism.)

Data set [2] is described as follows: Thermodynamic aqueous solubility in fasted state simulated intestinal fluid (FaSSIF). The data set is classed as physicochemical. To be noted: pH 6.5, thermodynamic from solid, equilibrated at 25° C. for 24 hours, HPLC. The protocol:
as §1, with “Macrophages are closely related to osteoclasts and have been used previously as a model system for osteoclast survival (see, e.g., Luckman et al., 1998).” left out
Thermodynamic aqueous solubility was measured by equilibration of a number of APSAC compounds, in the solid state, with fasted state simulated intestinal fluid (FaSSIF) and quantified by HPLC. Measurement of solubility in FaSSIF provides a valuable model for the prediction of drug dissolution following oral administration.
The pH was adjusted to 6.5 using 1 M NaOH solution.
0.6 mL of a solution containing 100 mg/mL lecithin in methylene chloride was added. The methylene chloride was eliminated under vacuum at about 40° C. The vacuum was drawn for 15 minutes at 250 mbar, followed by 15 minutes at 100 mbar. […] After cooling to room temperature, the solution was then adjusted to 100 mL with blank FaSSIF.
The suspension was equilibrated at 25° C. for 24 hours, and then the pH was measured. The suspension was then filtered through a glass fibre C filter into a 96-well plate. The filtrate was then diluted by a factor of 100. Quantification was made by HPLC with reference to a standard solution of compound at approximately 0.1 mg/mL in DMSO. Different volumes of the standard, diluted and undiluted sample solutions were injected. […] Analysis was performed on an Agilent HP1100 series system equipped with a diode array detector and using ChemStation software vB.02.01-SR1.

For a further data set, the system named is caspase 3. In words: Caspase induction study (Nucview488 fluorogenic substrate) in the presence of TNFα. The data set is classed as cell-based. The settings on record: human monocytes, 10 μM test compound, 10 ng/mL TNFα, Nucview488 stain. As for the experimental part: The ability to activate caspase 3 was studied using a fluorogenic enzyme substrate assay.
Briefly, human primary monocytes were isolated from whole blood using Ficoll gradients. The resulting cells were plated into microwell plates for 24 hours after which non-adherent cells were removed by washing. Cells were differentiated in the presence of 100 ng/mL MCSF. Cells were pre-treated with 10 μM test compound for 1 hour prior to stimulation with 10 ng/mL TNFα. Caspase 3 activation as an indicator of apoptosis was detected using the Nucview488 stain, which was added one hour prior to visualisation. The Nucview488 stain indicates the activation of caspase 3 (CPP32, apopain, YAMA), a cysteine peptidase which plays a key role in the induction of apoptosis in individual whole mammalian cells. Essentially, Nucview488 consists of a fluorogenic DNA dye and a DEVD substrate moiety specific for caspase 3. In itself, Nucview488 is nonfluorescent. However, upon entering the cell cytoplasm, Nucview488 is cleaved by caspase 3 to form a high-affinity DNA dye. The released DNA dye migrates to the cell nucleus to stain the nucleus bright green. This fluorescent staining produced in response to caspase 3 activity is monitored using fluorescent light microscopy.

For the compound `O=S(=O)(N[C@H]1CC[C@H](O)CC1)c1ccc(-c2ccc(F)cc2F)cc1` [ABD599, 2′,4′-Difluoro-N-(trans-4-hydroxycyclohexyl)biphenyl-4-sulfonamide], in the data set on J774 macrophages, the IC50 (as a rule, the point on the concentration scale where inhibition reaches its midpoint) was found to be 70 nM. The half-life (in general, the time in which the quantity being followed falls by half) at 3 µM in data set [1] worked out at 4.78 h. Besides, the solubility – broadly, the dissolved amount per volume that the medium holds – at 24 h in data set [2] was 30 µg/mL (≈ 81.7 µM). Moreover, in the data set with caspase 3, the “caspase 3 activation (fluorescence detected by light microscopy)” value is reported as “significant activation of caspase 3”.
